Assay results from ChEMBL document CHEMBL1201862, “PubChem BioAssay data set” (2004).
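Compound exposure: 48 hours, 5 concentrations, 96-well plates. GI50: concentration for 50% inhibition of growth.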 Activity calls are given as the source filed them. Cut-off read from the data, not from the text of the source: active = GI50 up to about 1.1 µM and inactive = higher.

What was measured:
Experiment in all cases: NCI anticancer screen, dose series, 48 h
[1] = tested on: OVCAR-4
[2] = tested on: SK-MEL-2
[3] = tested on: SF-268
[4] = tested on: SF-295
[5] = tested on: UACC-62
[6] = tested on: ACHN
[7] = tested on: SK-OV-3
[8] = tested on: DU-145
[9] = tested on: MDA-MB-435
[10] = tested on: SK-MEL-5
[11] = tested on: EKVX
[12] = tested on: KM12
[13] = tested on: IGROV-1
[14] = tested on: SNB-75
[15] = tested on: Hs-578T
[16] = tested on: Malme-3M
[17] = tested on: 786-0
[18] = tested on: MDA-MB-231
[19] = tested on: MOLT-4
[20] = tested on: HL-60

`c1cncc(CNc2ncn[nH]2)c1` was tested, and the GI50 [1] was > 100 µM (inactive), the GI50 [2] was > 100 µM (inactive) and the GI50 [3] was > 100 µM (inactive). For the same molecule, the GI50 [4] was > 100 µM (inactive), the GI50 [5] was > 100 µM (inactive) and the GI50 [6] was > 100 µM (inactive). For the same molecule, the GI50 [7] was > 100 µM (inactive), the GI50 [8] was > 100 µM (inactive) and the GI50 [9] was > 100 µM (inactive). The GI50 [10] was > 100 µM (inactive), the GI50 [11] was > 100 µM (inactive) and the GI50 [12] was > 100 µM (inactive). The GI50 [13] was > 100 µM (inactive), the GI50 [14] was > 100 µM (inactive) and the GI50 [15] was > 100 µM (inactive). The GI50 [16] was > 100 µM (inactive), the GI50 [17] was > 100 µM (inactive) and the GI50 [18] was > 100 µM (inactive). The GI50 [19] was > 100 µM (inactive).

For `COc1ccc2c(c1O)C13CCN(C)C(C2)C1CCC1(C3)OCCO1` (stereo not given), the GI50 [1] was > 100 µM (inactive), the GI50 [2] was > 100 µM (inactive) and the GI50 [3] was > 100 µM (inactive). The GI50 [4] was > 100 µM (inactive), the GI50 [5] was > 100 µM (inactive) and the GI50 [6] was > 100 µM (inactive). For the same molecule, the GI50 [7] was > 100 µM (inactive), the GI50 [8] was > 100 µM (inactive) and the GI50 [9] was > 100 µM (inactive). For the same molecule, the GI50 [10] was > 100 µM (inactive), the GI50 [11] was > 100 µM (inactive) and the GI50 [12] was > 100 µM (inactive). For the same molecule, the GI50 [13] was > 100 µM (inactive), the GI50 [14] was > 100 µM (inactive) and the GI50 [15] was > 100 µM (inactive). The GI50 [16] was > 100 µM (inactive), the GI50 [17] was > 100 µM (inactive) and the GI50 [18] was > 100 µM (inactive). The GI50 [19] was > 100 µM (inactive).

In the case of `COc1ccc(/N=C2\C(=O)Nc3ccc(Br)cc32)cc1`, the GI50 [3] is reported as 18.4 µM (inactive), the GI50 [4] is reported as 22.8 µM (inactive) and the GI50 [5] is reported as 4.89 µM (inactive). For the same molecule, the GI50 [6] was 15.4 µM (inactive), the GI50 [7] was 24.3 µM (inactive) and the GI50 [8] was 32.3 µM (inactive). For the same molecule, the GI50 [9] was 13.2 µM (inactive), the GI50 [20] was 15.6 µM (inactive) and the GI50 [10] was 11.2 µM (inactive). For the same molecule, the GI50 [11] was 17.2 µM (inactive), the GI50 [12] was 10.7 µM (inactive) and the GI50 [15] was 41.5 µM (inactive). For the same molecule, the GI50 [16] was 19.8 µM (inactive), the GI50 [17] was 16.3 µM (inactive) and the GI50 [18] was 13.9 µM (inactive). For the same molecule, the GI50 [19] was 16.6 µM (inactive).

With `COc1cc(C2SC(=N)Nc3c2c(C)nn3C(=O)c2ccccc2O)cc(OC)c1OC` (stereo not given) the GI50 [1] was 4.89 µM (inactive), the GI50 [2] was > 10 µM (inactive) and the GI50 [3] was 6.71 µM (inactive). For the same molecule, the GI50 [4] was 3.51 µM (inactive), the GI50 [5] was 2.72 µM (inactive) and the GI50 [6] was 4.32 µM (inactive). For the same molecule, the GI50 [7] was 1.66 µM (inactive), the GI50 [8] was 5.12 µM (inactive) and the GI50 [9] was 6.78 µM (inactive). The GI50 [10] was 3.78 µM (inactive), the GI50 [11] was > 10 µM (inactive) and the GI50 [12] was 8.3 µM (inactive). The GI50 [13] was 2.04 µM (inactive), the GI50 [14] was 1.87 µM (inactive) and the GI50 [15] was 3.57 µM (inactive). The GI50 [16] was > 10 µM (inactive), the GI50 [17] was 9.14 µM (inactive) and the GI50 [18] was 7.89 µM (inactive). The GI50 [19] was 4 µM (inactive).

With `COc1cc(/C=C2\CCC(C)c3c2nc(N)c(C#N)c3-c2cc(OC)c(OC)c(OC)c2)cc(OC)c1OC` (stereo not given) the GI50 [1] was 31.5 µM (inactive), the GI50 [2] was > 100 µM (inactive) and the GI50 [3] was 25.7 µM (inactive). For the same molecule, the GI50 [5] was > 100 µM (inactive), the GI50 [6] was > 100 µM (inactive) and the GI50 [7] was > 100 µM (inactive). The GI50 [8] was 55.2 µM (inactive), the GI50 [9] was > 100 µM (inactive) and the GI50 [20] was 49.1 µM (inactive). For the same molecule, the GI50 [10] was 71.9 µM (inactive), the GI50 [11] was 34.5 µM (inactive) and the GI50 [12] was 51.6 µM (inactive). For the same molecule, the GI50 [13] was 0.984 µM (active), the GI50 [14] was 0.165 µM (active) and the GI50 [15] was 18.7 µM (inactive). For the same molecule, the GI50 [17] was 37.4 µM (inactive), the GI50 [18] was 37.2 µM (inactive) and the GI50 [19] was 25.2 µM (inactive).

In the case of `CC(C)Oc1c(C2(c3ccccc3O)SCCCS2)c(=O)c1=O`, the GI50 [1] is reported as > 100 µM (inactive), the GI50 [2] is reported as > 100 µM (inactive) and the GI50 [3] is reported as > 100 µM (inactive). The GI50 [4] was > 100 µM (inactive), the GI50 [5] was 98.6 µM (inactive) and the GI50 [6] was > 100 µM (inactive). For the same molecule, the GI50 [7] was > 100 µM (inactive), the GI50 [8] was 93.3 µM (inactive) and the GI50 [9] was > 100 µM (inactive). The GI50 [20] was 54.2 µM (inactive), the GI50 [10] was > 100 µM (inactive) and the GI50 [11] was 55.5 µM (inactive). For the same molecule, the GI50 [12] was 51.5 µM (inactive), the GI50 [13] was 30.3 µM (inactive) and the GI50 [14] was 36.1 µM (inactive). For the same molecule, the GI50 [15] was > 100 µM (inactive), the GI50 [17] was > 100 µM (inactive) and the GI50 [18] was 69.2 µM (inactive). For the same molecule, the GI50 [19] was 57.5 µM (inactive).

With `COc1cc(OCCN(C)C)c2[nH]c(C(=O)N3CC(CCl)c4c3cc(N)c3ccccc43)cc2c1` (stereo not given) the GI50 [1] was < 0.018 µM (active), the GI50 [2] was < 0.01 µM (active) and the GI50 [3] was < 0.01 µM (active). For the same molecule, the GI50 [4] was < 0.01 µM (active), the GI50 [5] was < 0.01 µM (active) and the GI50 [6] was < 0.01 µM (active). The GI50 [7] was 0.0148 µM (active), the GI50 [8] was < 0.01 µM (active) and the GI50 [9] was < 0.01 µM (active). For the same molecule, the GI50 [10] was < 0.01 µM (active), the GI50 [11] was < 0.01 µM (active) and the GI50 [12] was < 0.01 µM (active). For the same molecule, the GI50 [13] was < 0.01 µM (active), the GI50 [14] was < 0.01 µM (active) and the GI50 [15] was < 0.01 µM (active). For the same molecule, the GI50 [16] was < 0.01 µM (active), the GI50 [17] was < 0.01 µM (active) and the GI50 [18] was < 0.01 µM (active).

`Cc1nn(CNc2ccc(F)c(Cl)c2)c(=S)n1/N=C/c1ccc(-c2ccc(Cl)cc2Cl)o1` was tested, and the GI50 [1] was 20.1 µM (inactive), the GI50 [2] was 22.6 µM (inactive) and the GI50 [3] was 16.3 µM (inactive). For the same molecule, the GI50 [4] was 15.7 µM (inactive), the GI50 [6] was 16.6 µM (inactive) and the GI50 [7] was 16.9 µM (inactive). For the same molecule, the GI50 [8] was 16.9 µM (inactive), the GI50 [9] was 17.6 µM (inactive) and the GI50 [20] was 1.44 µM (inactive). The GI50 [10] was 16.7 µM (inactive), the GI50 [11] was 16.4 µM (inactive) and the GI50 [12] was 20.5 µM (inactive). The GI50 [13] was 16.7 µM (inactive), the GI50 [15] was 15.5 µM (inactive) and the GI50 [17] was 15.3 µM (inactive). The GI50 [18] was 17.8 µM (inactive) and the GI50 [19] was 0.493 µM (active).
